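The concentration for 50% growth inhibition is given as GI50. TGI denotes the concentration required for complete inhibition of growth.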
How the values were obtained:
Assay in all cases: DTP human tumour cell line panel, 384-well format
786-0 renal = system: 786-0 renal
A498 renal = system: A498 renal
A549 NSCLC = system: A549 NSCLC
ACHN renal = system: ACHN renal
BT-549 breast = system: BT-549 breast
CAKI-1 renal = system: CAKI-1 renal
CCRF-CEM leukemia = system: CCRF-CEM leukemia
COLO 205 colon = system: COLO 205 colon
DU-145 prostate = system: DU-145 prostate
EKVX NSCLC = system: EKVX NSCLC
HCC-2998 colon = system: HCC-2998 colon
HCT-116 colon = system: HCT-116 colon
HCT-15 colon = system: HCT-15 colon
HL-60(TB) leukemia = system: HL-60(TB) leukemia
HOP-62 NSCLC = system: HOP-62 NSCLC
HOP-92 NSCLC = system: HOP-92 NSCLC
HS 578T breast = system: HS 578T breast
HT29 colon = system: HT29 colon
IGROV1 ovarian = system: IGROV1 ovarian
K-562 leukemia = system: K-562 leukemia
KM12 colon = system: KM12 colon
LOX IMVI melanoma = system: LOX IMVI melanoma
M14 melanoma = system: M14 melanoma
MCF7 breast = system: MCF7 breast
MDA-MB-231 breast = system: MDA-MB-231 breast
MDA-MB-435 melanoma = system: MDA-MB-435 melanoma
MDA-MB-468 breast = system: MDA-MB-468 breast
MOLT-4 leukemia = system: MOLT-4 leukemia
NCI-H226 lung = system: NCI-H226 lung
NCI-H23 lung = system: NCI-H23 lung
NCI-H322M lung = system: NCI-H322M lung
NCI-H460 NSCLC = system: NCI-H460 NSCLC
NCI-H522 lung = system: NCI-H522 lung
NCI/ADR-RES ovarian = system: NCI/ADR-RES ovarian
OVCAR-3 ovarian = system: OVCAR-3 ovarian
OVCAR-4 ovarian = system: OVCAR-4 ovarian
OVCAR-5 ovarian = system: OVCAR-5 ovarian
OVCAR-8 ovarian = system: OVCAR-8 ovarian
PC-3 prostate = system: PC-3 prostate
RPMI-8226 leukemia = system: RPMI-8226 leukemia
RXF 393 renal = system: RXF 393 renal
SF-268 CNS = system: SF-268 CNS
SF-295 CNS = system: SF-295 CNS
SF-539 CNS = system: SF-539 CNS
SK-MEL-2 melanoma = system: SK-MEL-2 melanoma
SK-MEL-28 melanoma = system: SK-MEL-28 melanoma
SK-MEL-5 melanoma = system: SK-MEL-5 melanoma
SN12C renal = system: SN12C renal
SNB-19 CNS = system: SNB-19 CNS
SNB-75 CNS = system: SNB-75 CNS
SW-620 colon = system: SW-620 colon
T-47D breast = system: T-47D breast
TK-10 renal = system: TK-10 renal
U251 glioblastoma = system: U251 glioblastoma
UACC-257 melanoma = system: UACC-257 melanoma
UACC-62 melanoma = system: UACC-62 melanoma
UO-31 renal = system: UO-31 renal

With `Nc1cc(C(F)F)c(-c2nc(N3[C@@H]4CC[C@H]3COC4)nc(N3[C@@H]4CC[C@H]3COC4)n2)cn1` the GI50 ([…]-0 renal) was 639 nM, the TGI (786-0 renal) was greater than 100 µM and the GI50 (A498 renal) was 89.9 nM. It also gave a TGI (A498 renal) of 3.63 µM, a GI50 (A549 NSCLC) of 338 nM and a TGI (A549 NSCLC) greater than 100 µM. The GI50 (ACHN renal) was 426 nM, the TGI (ACHN renal) was greater than 100 µM and the GI50 (BT-549 breast) was 261 nM. The TGI (BT-549 breast) was 2640 nM, the GI50 (CAKI-1 renal) was 311 nM and the TGI (CAKI-1 renal) was 3.67 µM. It also gave a GI50 (CCRF-CEM leukemia) of 301 nM, a TGI (CCRF-CEM leukemia) of 38 µM and a GI50 (COLO 205 colon) of 368 nM. The TGI (COLO 205 colon) was greater than 100 µM, the GI50 (DU-145 prostate) was 525 nM and the TGI (DU-145 prostate) was greater than 100 µM. The GI50 (EKVX NSCLC) was 345 nM, the TGI (EKVX NSCLC) was 12 µM and the GI50 (HCC-2998 colon) was 407 nM. For the same compound, the TGI (HCC-2998 colon) was greater than 100 µM, the GI50 (HCT-116 colon) was 1440 nM and the TGI (HCT-116 colon) was greater than 100 µM. The GI50 (HCT-15 colon) was 419 nM, the TGI (HCT-15 colon) was greater than 100 µM and the GI50 (HL-60(TB) leukemia) was 2530 nM. It also gave a TGI (HL-60(TB) leukemia) greater than 100 µM, a GI50 (HOP-62 NSCLC) of 497 nM and a TGI (HOP-62 NSCLC) of 7.53 µM. It also gave a GI50 (HOP-92 NSCLC) of 560 nM, a TGI (HOP-92 NSCLC) greater than 100 µM and a GI50 (HS 578T breast) of 138 nM. The TGI (HS 578T breast) was 687 nM, the GI50 (HT29 colon) was 4.21 µM and the TGI (HT29 colon) was greater than 100 µM. The GI50 (IGROV1 ovarian) was 188 nM, the TGI (IGROV1 ovarian) was 980 nM and the GI50 (K-562 leukemia) was 523 nM. The TGI (K-562 leukemia) was greater than 100 µM, the GI50 (KM12 colon) was 320 nM and the TGI (KM12 colon) was greater than 100 µM. It also gave a GI50 (LOX IMVI melanoma) of 464 nM, a TGI (LOX IMVI melanoma) greater than 100 µM and a GI50 (M14 melanoma) of 358 nM. For the same compound, the TGI (M14 melanoma) was greater than 100 µM, the GI50 (MCF7 breast) was 143 nM and the TGI (MCF7 breast) was greater than 100 µM. For the same compound, the GI50 (MDA-MB-231 breast) was 338 nM, the TGI (MDA-MB-231 breast) was greater than 100 µM and the GI50 (MDA-MB-435 melanoma) was 499 nM. For the same compound, the TGI (MDA-MB-435 melanoma) was 32.2 µM, the GI50 (MDA-MB-468 breast) was 201 nM and the TGI (MDA-MB-468 breast) was 980 nM. It also gave a GI50 (MOLT-4 leukemia) of 158 nM, a TGI (MOLT-4 leukemia) of 9.69 µM and a GI50 (NCI-H226 lung) of 196 nM. It also gave a TGI (NCI-H226 lung) of 2840 nM, a GI50 (NCI-H23 lung) of 2180 nM and a TGI (NCI-H23 lung) greater than 100 µM. The GI50 (NCI-H322M lung) was 398 nM, the TGI (NCI-H322M lung) was greater than 100 µM and the GI50 (NCI-H460 NSCLC) was 105 nM. The TGI (NCI-H460 NSCLC) was greater than 100 µM, the GI50 (NCI-H522 lung) was 183 nM and the TGI (NCI-H522 lung) was 7.62 µM. For the same compound, the GI50 (NCI/ADR-RES ovarian) was 921 nM, the TGI (NCI/ADR-RES ovarian) was greater than 100 µM and the GI50 (OVCAR-3 ovarian) was 349 nM. It also gave a TGI (OVCAR-3 ovarian) greater than 100 µM, a GI50 (OVCAR-4 ovarian) of 178 nM and a TGI (OVCAR-4 ovarian) of 2210 nM. The GI50 (OVCAR-5 ovarian) was 718 nM, the TGI (OVCAR-5 ovarian) was greater than 100 µM and the GI50 (OVCAR-8 ovarian) was 545 nM. For the same compound, the TGI (OVCAR-8 ovarian) was greater than 100 µM, the GI50 (PC-3 prostate) was 253 nM and the TGI (PC-3 prostate) was greater than 100 µM. For the same compound, the GI50 (RPMI-8226 leukemia) was 28.7 nM, the TGI (RPMI-8226 leukemia) was 198 nM and the GI50 (RXF 393 renal) was 198 nM. For the same compound, the TGI (RXF 393 renal) was 1580 nM, the GI50 (SF-268 CNS) was 1120 nM and the TGI (SF-268 CNS) was greater than 100 µM. It also gave a GI50 (SF-295 CNS) of 215 nM, a TGI (SF-295 CNS) of 1930 nM and a GI50 (SF-539 CNS) of 451 nM. For the same compound, the TGI (SF-539 CNS) was greater than 100 µM, the GI50 (SK-MEL-2 melanoma) was 2120 nM and the TGI (SK-MEL-2 melanoma) was 9.78 µM. It also gave a GI50 (SK-MEL-28 melanoma) of 446 nM, a TGI (SK-MEL-28 melanoma) greater than 100 µM and a GI50 (SK-MEL-5 melanoma) of 251 nM. It also gave a TGI (SK-MEL-5 melanoma) of 1530 nM, a GI50 (SN12C renal) of 347 nM and a TGI (SN12C renal) greater than 100 µM. It also gave a GI50 (SNB-19 CNS) of 3.03 µM, a TGI (SNB-19 CNS) greater than 100 µM and a GI50 (SNB-75 CNS) of 170 nM. For the same compound, the TGI (SNB-75 CNS) was 873 nM, the GI50 (SW-620 colon) was 1510 nM and the TGI (SW-620 colon) was greater than 100 µM. For the same compound, the GI50 (T-47D breast) was 104 nM, the TGI (T-47D breast) was 509 nM and the GI50 (TK-10 renal) was 384 nM. It also gave a TGI (TK-10 renal) of 8.8 µM, a GI50 (U251 glioblastoma) of 769 nM and a TGI (U251 glioblastoma) greater than 100 µM. It also gave a GI50 (UACC-257 melanoma) of 1500 nM, a TGI (UACC-257 melanoma) greater than 100 µM and a GI50 (UACC-62 melanoma) of 389 nM. The TGI (UACC-62 melanoma) was 5.93 µM, the GI50 (UO-31 renal) was 216 nM and the TGI (UO-31 renal) was 796 nM.

Reference: PubChem BioAssay (NCI)
